The values below come from patent US10738056B2 (Aduro BioTech, Inc., priority 2017, dated 2020).

Human cGAS amino acids 155-522, sequence (Q8N884 157-522): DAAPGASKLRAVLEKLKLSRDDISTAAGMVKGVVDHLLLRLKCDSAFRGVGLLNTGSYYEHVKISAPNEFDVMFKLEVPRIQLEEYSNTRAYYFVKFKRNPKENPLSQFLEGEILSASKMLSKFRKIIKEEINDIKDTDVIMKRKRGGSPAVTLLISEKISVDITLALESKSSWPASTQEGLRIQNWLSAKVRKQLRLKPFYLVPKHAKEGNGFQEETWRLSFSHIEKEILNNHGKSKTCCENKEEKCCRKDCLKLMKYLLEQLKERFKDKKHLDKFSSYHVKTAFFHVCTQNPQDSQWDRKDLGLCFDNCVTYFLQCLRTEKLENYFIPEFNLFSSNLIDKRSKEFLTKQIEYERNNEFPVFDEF

This test has as its target Human cGAS amino acids 155-522 (Homo sapiens (Human), UniProt Q8N884). In words: cGAS biochemical activity assay (ATP remaining, Kinase-Glo Max luminescence). The following applies: human cGAS 155-522, ATP remaining (Kinase-Glo Max); read-out: cGAS IC50. In general terms: In Kinase-Glo more light means more ATP remaining.
What is called IC50 is the concentration that gives 50% inhibition. Turning to `Cc1[nH]c2c(-c3ccccc3)c(C#N)nn2c(=O)c1-c1ncco1` [Compound C1270, 5-methyl-6-(oxazol-2-yl)-7-oxo-3-phenyl-4,7-dihydropyrazolo[1,5-a]pyrimidine-2-carbonitrile], the IC50 was less than 20 µM. Then `Cc1[nH]c2c(-c3ccccc3)c(C(F)(F)F)nn2c(=O)c1C(=O)N[C@H]1CCCC[C@H]1O` [Compound A1092, N-((1S,2R)-2-hydroxycyclohexyl)-5-methyl-7-oxo-3-phenyl-2-(trifluoromethyl)-4,7-dihydropyrazolo[1,5-a]pyrimidine-6-carboxamide], with 20 to 250 µM; and `Cc1[nH]c2c(-c3ccccc3)c(C(F)(F)F)nn2c(=O)c1CC(=O)Nc1ccncc1` [Compound B1004, 2-(5-methyl-7-oxo-3-phenyl-2-(trifluoromethyl)-4,7-dihydropyrazolo[1,5-a]pyrimidin-6-yl)-N-(pyridin-4-yl)acetamide], with 20 to 250 µM; and `COc1cccc2oc(-c3c(C)[nH]c4c(-c5ccccc5)c(N)nn4c3=O)nc12` [Compound C1063, 2-amino-6-(4-methoxybenzo[d]oxazol-2-yl)-5-methyl-3-phenylpyrazolo[1,5-a]pyrimidin-7(4H)-one], with more than 250 µM.

Regarding `Cc1[nH]c2c(-c3ccccc3)c(C#N)nn2c(=O)c1-c1nc2c(OC3CC3)cccc2o1` [Compound C1277, 6-(4-cyclopropoxybenzo[d]oxazol-2-yl)-5-methyl-7-oxo-3-phenyl-4,7-dihydropyrazolo[1,5-a]pyrimidine-2-carbonitrile], the IC50 is less than 20 µM. The figure for `Cc1[nH]c2c(-c3ccccc3)c(C(F)(F)F)nn2c(=O)c1CC(=O)Nc1ccccc1` [Compound B1005] is 20 to 250 µM.

As to `Cc1ccccc1NC(=O)c1c(C)[nH]c2c(-c3ccccc3)c(C(F)(F)F)nn2c1=O` [Compound A1037, 5-methyl-7-oxo-3-phenyl-N-(o-tolyl)-2-(trifluoromethyl)-4,7-dihydropyrazolo[1,5-a]pyrimidine-6-carboxamide], the IC50 fell in the range of 20 to 250 µM. Then `COc1c(Br)cccc1NC(=O)c1c(C)[nH]c2c(-c3ccccc3)c(C(F)(F)F)nn2c1=O` [Compound A1130, N-(3-bromo-2-methoxyphenyl)-5-methyl-7-oxo-3-phenyl-2-(trifluoromethyl)-4,7-dihydropyrazolo[1,5-a]pyrimidine-6-carboxamide], with 20 to 250 µM. Regarding `COc1cccc(NCCc2c(C)[nH]c3c(-c4ccccc4)c(C(F)(F)F)nn3c2=O)c1` [Compound B1015, 6-(2-((3-methoxyphenyl)amino)ethyl)-5-methyl-3-phenyl-2-(trifluoromethyl)pyrazolo[1,5-a]pyrimidin-7(4H)-one], the IC50 is less than 20 µM. The figure for `COc1nc(NC(C)=O)nc2oc(-c3c(C)[nH]c4c(-c5ccccc5)c(C(F)(F)F)nn4c3=O)nc12` [Compound C1150, N-(7-methoxy-2-(5-methyl-7-oxo-3-phenyl-2-(trifluoromethyl)-4,7-dihydropyrazolo[1,5-a]pyrimidin-6-yl)oxazolo[5,4-d]pyrimidin-5-yl)acetamide] is 20 to 250 µM; for `COc1cccc(-c2c(C(F)(F)F)nn3c(=O)c(-c4nc5c(OC)cccc5o4)c(C)[nH]c23)c1` [Compound C1120, 6-(4-methoxybenzo[d]oxazol-2-yl)-3-(3-methoxyphenyl)-5-methyl-2-(trifluoromethyl)pyrazolo[1,5-a]pyrimidin-7(4H)-one] it is 20 to 250 µM; for `COc1cccc(NC(=O)c2c(C)[nH]c3c(-c4ccccc4)c(C(F)(F)F)nn3c2=O)c1OC` [Compound A1043, N-(2,3-dimethoxyphenyl)-5-methyl-7-oxo-3-phenyl-2-(trifluoromethyl)-4,7-dihydropyrazolo[1,5-a]pyrimidine-6-carboxamide] it is 20 to 250 µM.

Take `Cc1[nH]c2c(-c3ccccc3)c(C(F)(F)F)nn2c(=O)c1C(=O)Nc1ccc(S(C)(=O)=O)cn1` [Compound A1108, 5-methyl-N-(5-(methylsulfonyl)pyridin-2-yl)-7-oxo-3-phenyl-2-(trifluoromethyl)-4,7-dihydropyrazolo[1,5-a]pyrimidine-6-carboxamide]: the IC50 lay in the range of 20 to 250 µM.
